From US11634452B2, “Compounds for treating neurodegenerative disorders” (ETHNODYNE, priority 2017, dated 2023) come the findings set out here.

Test [1] deals with primary rat motor neurons injured with glutamate. Description: Primary motor neuron culture survival after glutamate exposure (in vitro ALS model). The settings on record: CR777 between 1 nM and 10 nM, added 1 h before glutamate (5 μM, 20 min, then 48 h). It counts as cell-based. The method, then:
The aim of this study was to study the effect of CR777 on primary motor neuron culture from rat spinal cord (SC) injured by glutamate exposure (a well validated in vitro ALS model and model of motor neuron diseases).
Rat SC motor neurons were cultured as described by Martinou et al., Neuron. 1992 April; 8(4):737-44 and Wang et al., Hum Mol Genet. 2013 Dec. 1; 22(23):4706-19. Briefly, pregnant female rats (Wistar, Janvier labs) of 14 days gestation were killed by cervical dislocation. […] Cells were then centrifuged at 180 g for 10 min at +4° C. on a layer of BSA (3.5%) in L15 medium. […] The medium was changed every day.
The following conditions were assessed: • Control • + glutamate (5 μM 20 mn then 48 h) • + glutamate (5 μM 20 mn then 48 h)+CR777 1 pmol/L • + glutamate (5 μM 20 mn then 48 h)+CR777 10 pmol/L • + glutamate (5 μM 20 mn then 48 h)+CR777 100 pmol/L • + glutamate (5 μM 20 mn then 48 h)+CR777 1 nmol/L • + glutamate (5 μM 20 mn then 48 h)+CR777 10 nmol/L • + glutamate (5 μM 20 mn then 48 h)+CR777 100 nmol/L • + glutamate (5 μM 20 mn then 48 h)+CR777 1 μmol/L • + glutamate (5 μM 20 mn then 48 h)+CR777 10 μmol/L […]
For each condition, 6 wells were assessed, 30 pictures per well were taken using ImageXpress (Molecular Devices) with 20× magnification, to assess motor neuron survival (MAP-2). […]

Test [2] deals with primary rat cortical neurons injured with Aβ1-42. Description: Neuroprotective effect on an in vitro model of Alzheimer disease. It counts as cell-based. Here is the method: These peptides contribute to cerebrovascular lesions and are neurotoxic. This study investigated the neuroprotective effect of the plant extract of the invention on rat primary cortical cultures following exposure to Aβ1-42 in an in vitro AD model (Callizot. N., et al., 2013).
Rat cortical neurons were cultured as described in Example 6.
The cortical neurons were intoxicated with amyloid beta peptides solutions after 11 days of culture in presence of tested compound CR777.
Briefly, Aβ1-42 peptide (Batch: APN09080-1-1, Abcam, United Kingdom) was dissolved in the defined culture medium B27 mentioned above, devoid of serum, at an initial concentration of 40 μmol/L. This solution was gently agitated for 3 days at 37° C. in the dark and immediately used after being properly diluted in culture medium to the concentrations used (20 μM corresponding to 2 μM of AβO, measuring by WB, for survival, neurite network, tau phosphor and caspase 3 activation and 2.5 μM corresponding to 0.25 μM of AβO, for synapses evaluation).
CR777 was solved in DMSO at 10 mM and diluted in culture medium at different concentrations (see table below). The compound was tested on one primary cortical culture in 96 well plates (6 wells per conditions), and was pre-incubated 1 hour before Aβ1-42 application for 24 hours.
24 hours after intoxication, the cell culture supernatant was taken off and the cortical neurons were fixed by a cold solution of ethanol (95%) and acetic acid (5%) for 5 min at −20° C. • Plate 1: Immunostainning (MAP-2/Tau Phosphor)
After permeabilization with 0.1% of saponin, cells were incubated for 2 hours with a) a mouse monoclonal antibody anti phosphoT at dilution of 1/400 in PBS containing 1% fetal calf serum and 0.1% of saponin and b) a chicken polyclonal antibody anti microtubule-associated-protein 2 (MAP-2) at dilution of 1/1000 in PBS containing 1% fetal calf serum and 0.1% of saponin (this antibody stains specifically cell bodies and neurites, allowing study of neuronal cell survival and neurite network).
For each condition, 30 pictures/well (representative of ˜the all well area) were taken automatically using ImageXpress (Molecular Devices) with 20× magnification. All images were taken with the same conditions. Analysis were performed automatically by using Custom Module Editor (Molecular Devices).
The following endpoints were investigated per culture well: • The total neuron survival (MAP-2 staining), • The neurite network (MAP-2 staining) and • hyperphophorylation of T protein (pT) into neurons (pT/MAP-2). • Plate 2: Immunostainning (MAP-2/Caspase 3)
For each condition, 30 pictures/well (representative of ˜the all well area) were taken automatically using ImageXpress (Molecular Devices) with 20× magnification. All images were taken with the same conditions. Analysis were performed automatically by using Custom Module Editor (Molecular Devices). • The total number of caspase 3 positive neuron (overlapping caspase3/MAP-2) were investigated per culture well:
Data is expressed in percentage of control conditions (no injury, no compound=100%). All values are expressed as mean+/−SEM (standard error of the mean) from 6 wells per condition per culture. Neuro-Sys performed graphs and statistical analyses on the different conditions (ANOVA followed by Dunnett's test when allowed, using GraphPad Prism software version 5.0).

Where [3] appears, read: CR777 1 nM to 1 μM added 1 h before Aβ1-42 (20 μM, 24 h).
Setting [4] is: CR777 all doses (1 nM to 1 μM), Aβ1-42 20 μM, 24 h.

For the compound `CC1=C(CO)C(=O)O[C@@H]([C@@H](C)[C@H]2CCC3C4C[C@H](SC[C@H](NC(=O)CC[C@@H](N)C(=O)O)C(=O)NCC(=O)O)[C@]5(O)[C@@H](O)C=CC(=O)[C@]5(C)C4CC[C@@]32C)C1` (some centres unmarked) [CR777], the motor neuron survival entry in test [1] is “moderate and significant protective effect”. Moreover, in test [2] (setting [3]), the neurite network result is reported as “significant protective effect” and the neuron survival result is recorded as “significant protective effect”. In test [2] (setting [4]), the “caspase 3 activation” value was “decrease of caspase 3 activation” and the tau hyperphosphorylation result is on record as “significant decrease”.
